# Experimental data taken from patent US12233061B2, “Microvascular angina” (THE UNIVERSITY COURT OF THE UNIVERSITY OF GLASGOW, priority 2019, dated 2025).
# Entries after “also recorded” stand apart in the source; their conditions may differ. Where two headings read alike, the source gives them in different places. Where a SMILES comes first, the peptide text is derived from it.
# Key:
# [1] = system: small peripheral resistance vessels; test: Wire myography by rs9349379 genotype: vasodilator response to ACh; assay type: cell-based; conditions: Homo sapiens, 95% CI; for EC50: read-out: ACh pEC50 (converted)
# resistance arteries [2] = test: Wire myography: relaxation to dilator agonists after preconstriction with U46619 (Example 2); assay type: cell-based, human; conditions: median; for IC50 / Emax: Homo sapiens; for Emax: read-out: Emax (maximum relaxation after preconstriction with U46619)
# ETA receptor [3] = molecular target: T1, ETA receptor (Homo sapiens, UniProt P25101); test: Paired ET-1 CCRCs with and without ETA antagonist, pKB by Schild regression (Examples 4 and 5); assay type: cell-based; conditions: for Kb: pKB
# T1 construct: Small peripheral resistance vessels (<400 μm) were carefully dissected from fresh biopsies using a light microscope; from tissue; host or cells: small peripheral resistance arteries from gluteal skin fat biopsies of angina patients
# T1 sequence (P25101 21-427): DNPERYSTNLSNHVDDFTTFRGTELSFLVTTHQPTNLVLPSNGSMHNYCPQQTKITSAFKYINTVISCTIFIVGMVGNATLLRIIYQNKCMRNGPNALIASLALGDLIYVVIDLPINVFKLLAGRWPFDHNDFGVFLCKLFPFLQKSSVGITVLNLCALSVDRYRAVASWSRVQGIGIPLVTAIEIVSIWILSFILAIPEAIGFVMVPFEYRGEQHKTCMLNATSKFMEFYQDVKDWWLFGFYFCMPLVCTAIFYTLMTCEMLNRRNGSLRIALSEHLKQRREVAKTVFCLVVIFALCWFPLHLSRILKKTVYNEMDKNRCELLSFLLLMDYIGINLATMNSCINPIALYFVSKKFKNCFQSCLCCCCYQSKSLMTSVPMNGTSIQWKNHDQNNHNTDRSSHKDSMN
# Experimental: (§1) Ex vivo pharmacological assessment of peripheral vascular function was performed on patients who volunteered to undergo a gluteal skin fat biopsy within 4 weeks of the invasive coronary function assessment. The biopsy was obtained under sterile conditions using local anaesthesia with lidocaine (2%). Small peripheral resistance vessels (<400 μm) were carefully dissected from fresh biopsies using a light microscope. About 2 mm length vessels were mounted on 40-μm stainless steel wires for isometric myography in multi-channel myograph chambers (DMT, Denmark) filled with physiological saline solution. […] This vascular biology sub-study was an extension of our work in INOCA subjects that was previously published in this journal.^31A The detailed methods are described in the Supplementary material online, Appendix.
# (§2) The peripheral vascular sensitivity to ET-1 (pEC50) and maximum vasoconstriction to ET-1 (Eumax) were determined. For the antagonist studies, the affinity (KB) of BQ123 was first determined in paired vessels from individuals and calculated using Schild regression. The pKB (−log10 KB) values were compared between each genotype as an indicator of whether or not patients of different genotypes are likely to respond equally well to an ETA antagonist used clinically.
# ETA receptor [4] = molecular target: T1, ETA receptor; test: ET-1 cumulative concentration response curves after antagonist preincubation, Schild plot pA2 (Example 3); assay type: cell-based; conditions: microvessels pre-treated with antagonist
# resistance arteries [5] = test: Wire myography: contractile response to constrictor agonists, relative to KPSS (Example 2); assay type: cell-based, human; conditions: for Emax (percentage of maximum response to KPSS solution) / pEC50: median
# [6] = system: small peripheral resistance vessels; test: Wire myography by rs9349379 genotype: vasoconstriction to ET-1; assay type: cell-based, human; conditions: 95% CI
# Experimental: as §1, §2
# [7] = system: human mammary resistance arteries; conditions: compared with bosentan; cited from earlier work
# [8] = GTN half-life and remaining dose; conditions: human, in vivo, other: intra-arterial; after 10 min; read-out: share of the dose bioavailable
# [9] = system: coronary microvascular endothelial function; conditions: 10 mg PO daily for 6 months; IC-ACh; cited from earlier work
# [10] = subjects with low myocardial perfusion homogeneity; cited from earlier work
# [11] = cited from earlier work
# [12] = system: small peripheral resistance arteries; test: Reversal of an established ET-1-mediated vessel constriction, wire myography; assay type: cell-based, human; conditions: clinically relevant concentrations
smiles,measurement,setting,value
"CC(=O)OCC[N+](C)(C)C [ACh, Acetylcholine]",Emax,[1]; genotype AA,77.7%
same,EC50,[1]; genotype AA,0.0525 µM
same,Emax,[1]; genotype AG,80.2%
same,EC50,[1]; genotype AG,0.055 µM
same,Emax,[1]; genotype GG,92.5%
same,EC50,[1]; genotype GG,0.11 µM
same,IC50,resistance arteries [2]; MVA patients,0.0794 µM
same,Emax,resistance arteries [2]; MVA patients,77.6%
same,IC50,resistance arteries [2]; VSA patients,0.0794 µM
same,Emax,resistance arteries [2]; VSA patients,79%
same,IC50,resistance arteries [2]; control subjects,0.0501 µM
same,Emax,resistance arteries [2]; control subjects,98.7%
same,Emax (maximum relaxation after preconstriction with U46619),resistance arteries [2]; control subjects,98%
"CC(C)C[C@@H]1NC(=O)[C@@H](C(C)C)NC(=O)[C@@H]2CCCN2C(=O)[C@@H](CC(=O)O)NC(=O)[C@@H](Cc2c[nH]c3ccccc23)NC1=O [BQ123] (HELM PEPTIDE1{L.[dW].[dD].P.[dV]}$PEPTIDE1,PEPTIDE1,1:R1-5:R2$$$V2.0)",effect on the ET-1 CCRC and constrictor responses,ETA receptor [3]; all genotype groups,parallel rightward shift of the CCRC to ET-1 in all arteries; also recorded: fully blocked the constrictor responses in all of the groups
same,Kb,"ETA receptor [3]; all genotypes pooled, mean (95% CI)",0.0295 µM
same,Kb,"ETA receptor [3]; rs9349379 genotype AA, ±SEM",0.0851 µM
same,Kb,"ETA receptor [3]; rs9349379 genotype AG, ±SEM",0.0162 µM
same,Kb,"ETA receptor [3]; rs9349379 genotype GG, ±SEM",0.0389 µM
same,effect on the ET-1 constrictor response (shift of ET-1 CCRC),ETA receptor [4],also inhibits the ET-1 response; also recorded: an effect comparable to that of zibotentan
CCCC[C@@H](NC(=O)[C@@H](Cc1cn(C(=O)OC)c2ccccc12)NC(=O)[C@H](CC(C)(C)C)NC(=O)N1[C@H](C)CCC[C@@H]1C)C(=O)O [BQ788],effect on the ET-1 constrictor response (shift of ET-1 CCRC),ETA receptor [4],only minimal shift in the ET-1 response; also recorded: negligible effect on the ET-1 constrictor response
CC[C@H](C)[C@H](NC(=O)[C@H](CC(=O)O)NC(=O)[C@H](CC(C)C)NC(=O)[C@H](Cc1c[nH]cn1)NC(=O)[C@@H]1CSSC[C@H](N)C(=O)N[C@@H](CO)C(=O)N[C@H]2CSSC[C@H](NC(=O)[C@H](CCC(=O)O)NC(=O)[C@H](CCCCN)NC(=O)[C@H](CC(=O)O)NC(=O)[C@H](CCSC)NC(=O)[C@H](CC(C)C)NC(=O)[C@H](CO)NC(=O)[C@H](CO)NC2=O)C(=O)N[C@@H](C(C)C)C(=O)N[C@@H](Cc2ccc(O)cc2)C(=O)N[C@@H](Cc2ccccc2)C(=O)N1)C(=O)N[C@H](C(=O)N[C@@H](Cc1c[nH]c2ccccc12)C(=O)O)[C@@H](C)CC [ET-1],Emax (percentage of maximum response to KPSS solution),resistance arteries [5]; MVA patients,121%
same,pEC50,resistance arteries [5]; MVA patients,9.6
same,Emax (percentage of maximum response to KPSS solution),resistance arteries [5]; VSA patients,125%
same,pEC50,resistance arteries [5]; VSA patients,9.5
same,sensitivity of resistance arteries to constrictor effects of ET-1 compared with U46619,resistance arteries [5]; all groups,around 50 fold
same,Emax (percentage of maximum response to KPSS solution),resistance arteries [5]; control subjects,100%
same,pEC50,resistance arteries [5]; control subjects,9.3
same,ET-1 Emax (maximum vasoconstriction),[6]; genotype AA,122.3%
same,ET-1 pEC50,[6]; genotype AA,9.34
same,ET-1 Emax (maximum vasoconstriction),[6]; genotype AG,115.5%
same,ET-1 pEC50,[6]; genotype AG,9.45
same,ET-1 Emax (maximum vasoconstriction),[6]; genotype GG,129.7%
same,ET-1 pEC50,[6]; genotype GG,9.32
CC(C)C[C@H](NC(=O)N1CCCCCC1)C(=O)N[C@H](Cc1cn(C)c2ccccc12)C(=O)N[C@H](Cc1ccccn1)C(=O)O [FR139317],blocking of ET-1 induced contractions,[7],less effective than the dual ETAR/ETBR antagonist bosentan
"O=[N+]([O-])OCC(CO[N+](=O)[O-])O[N+](=O)[O-] [GTN, glyceryl trinitrate]",bioavailability at 10 min,[8],3%
CCCCC[C@H](O)/C=C/[C@@H]1[C@@H](C/C=C\CCCC(=O)O)[C@H]2CO[C@@H]1C2 [U46619],Emax (percentage of maximum response to KPSS solution),resistance arteries [5]; MVA patients,143%
same,pEC50,resistance arteries [5]; MVA patients,8.0
same,Emax (percentage of maximum response to KPSS solution),resistance arteries [5]; VSA patients,141%
same,pEC50,resistance arteries [5]; VSA patients,7.5
same,Emax (percentage of maximum response to KPSS solution),resistance arteries [5]; control subjects,109%
same,pEC50,resistance arteries [5]; control subjects,7.50
CCCCN(CCCC)C(=O)CN1C[C@H](c2ccc3c(c2)OCO3)[C@@H](C(=O)O)[C@@H]1c1ccc(OC)cc1 [atrasentan],coronary microvascular endothelial function,[9],improved coronary microvascular endothelial function
COc1cc(OC)nc(O[C@H](C(=O)O)C(OC)(c2ccccc2)c2ccccc2)n1 [darusentan],flow homogeneity,[10],increases flow homogeneity
Cc1cc2c(cc1CC(=O)c1sccc1S(=O)(=O)Nc1onc(C)c1Cl)OCO2 [sitaxentan],exercise time,"[11]; HFpEF patients, compared to placebo",increase in exercise time compared to placebo
same,hepatotoxicity,[11]; in vivo,withdrawn from development owing to hepatotoxicity
"COc1nc(C)cnc1NS(=O)(=O)c1cccnc1-c1ccc(-c2nnco2)cc1 [zibotentan, N-(3-Methoxy-5-methylpyrazin-2-yl)-2-[4-(1,3,4-oxadiazol-2-yl)phenyl]pyridine-3-sulfonamide]",reversal or inhibition of an established constrictor response to ET-1,[12],concentration-dependent inhibition of an established constrictor response to ET-1; also recorded: fully reversed an established endothelin-1 vasoconstriction
same,reversal or inhibition of an established constrictor response to ET-1,[12]; listed as Zibotentan,concentration-dependent inhibition of an established constrictor response to ET-1; also recorded: reversed ET-1-induced vasoconstriction independently of G allele status; also recorded: reversed an established ET-1-mediated vasoconstriction; also recorded: rapidly and fully reversed the established endothelin-1 constrictor response
